Results taken from US20020026053A1, “Novel 3-(substituted) -2- indolinones compounds and use thereof as inhibitors of protein kinase activity” (priority 1997, published 2002).

target: T1, Met receptor (EGFR/Met chimeric cells, EMR) (Homo sapiens, UniProt P08581); test: Met Autophosphorylation Assay; type: biochemical
T1 construct: expressed in transfected cells; the other entry of the earlier key: EGFR (P00533, Epidermal growth factor receptor)
How it was run: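 Met phosphorylation was measured by capture ELISA. Lysates (90 μg/100 μl, HNTG plus 1 mM PMSF) from transiently transfected EGFR/Met chimera (EMR) cells were bound for 60 min at room temperature to wells holding rabbit anti-Met (C-28) on goat anti-rabbit coat. Phosphotyrosine was the read-out.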

T1 sequence (P08581 with tags, fused parts or gaps): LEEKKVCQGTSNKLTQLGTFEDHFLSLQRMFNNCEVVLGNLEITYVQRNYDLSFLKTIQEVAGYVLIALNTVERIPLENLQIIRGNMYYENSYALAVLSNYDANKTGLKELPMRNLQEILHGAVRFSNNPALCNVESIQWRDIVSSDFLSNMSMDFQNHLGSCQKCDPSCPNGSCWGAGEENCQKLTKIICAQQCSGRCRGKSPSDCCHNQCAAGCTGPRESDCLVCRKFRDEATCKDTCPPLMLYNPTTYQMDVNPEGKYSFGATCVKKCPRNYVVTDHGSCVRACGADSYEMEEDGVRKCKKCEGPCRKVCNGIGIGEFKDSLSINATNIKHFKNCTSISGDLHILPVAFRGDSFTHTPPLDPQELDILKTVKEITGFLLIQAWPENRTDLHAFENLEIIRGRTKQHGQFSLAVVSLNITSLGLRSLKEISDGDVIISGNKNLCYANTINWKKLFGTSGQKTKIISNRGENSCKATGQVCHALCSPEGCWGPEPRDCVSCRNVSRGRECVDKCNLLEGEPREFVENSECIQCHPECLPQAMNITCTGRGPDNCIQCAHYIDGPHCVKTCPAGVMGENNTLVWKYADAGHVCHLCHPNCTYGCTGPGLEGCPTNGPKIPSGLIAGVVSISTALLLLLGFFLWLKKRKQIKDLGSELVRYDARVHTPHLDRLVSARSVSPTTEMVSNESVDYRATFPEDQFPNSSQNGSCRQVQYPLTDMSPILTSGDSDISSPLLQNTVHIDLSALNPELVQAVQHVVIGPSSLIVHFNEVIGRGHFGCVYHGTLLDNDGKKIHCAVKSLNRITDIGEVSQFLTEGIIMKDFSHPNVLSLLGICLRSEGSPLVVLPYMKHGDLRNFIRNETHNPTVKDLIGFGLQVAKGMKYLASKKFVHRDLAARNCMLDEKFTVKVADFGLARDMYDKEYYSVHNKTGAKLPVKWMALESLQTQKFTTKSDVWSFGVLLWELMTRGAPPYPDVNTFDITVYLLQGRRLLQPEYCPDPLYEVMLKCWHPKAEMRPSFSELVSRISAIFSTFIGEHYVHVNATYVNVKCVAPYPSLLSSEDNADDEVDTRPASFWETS

| SMILES | Met Kinase % Inhibition (P.130) |
| --- | --- |
| Cc1c(Br)cc(Br)c2c1C(=Cc1ccc(F)cc1C(F)(F)F)C(=O)N2 [10719/H11] | 50.5% |
| Cc1c(Br)cc(Br)c2c1C(=Cc1c(F)cc(F)cc1F)C(=O)N2 [10720/H02] | 64.1% |
| Cc1c(Br)ccc2c1C(=Cc1ccccc1C(F)(F)F)C(=O)N2 [10736/C03] | 9.9% |
| CNS(=O)(=O)c1ccc2c(c1)C(=Cc1cccc(Cl)c1)C(=O)N2 [10736/D06] | 14.7% |
| Cc1c(Br)cc(Br)c2c1C(=Cc1ccc(O)cc1)C(=O)N2 [10719/H07] | 22.9% |
| O=C1Nc2ccc(I)cc2C1=Cc1cccc(Cl)c1 [10736/B06] | 60.6% |
| Cc1c(Br)ccc2c1C(=Cc1cccc(Cl)c1)C(=O)N2 [10736/C06] | 45.2% |
| Cc1c(Br)cc(Br)c2c1C(=Cc1ccc(Cl)cc1Cl)C(=O)N2 [10735/H10] | 29.9% |
| O=C1Nc2c(Br)cc(Br)cc2C1=Cc1cccc(F)c1 [10736/A07] | 55.2% |
| O=C1Nc2ccc(S(=O)(=O)Nc3ccc(C(F)(F)F)cc3)cc2C1=Cc1ccc(Cl)cc1 [10736/E02] | 81.5% |
| O=C1Nc2ccc(S(=O)(=O)N3CCOCC3)cc2C1=Cc1cccc(F)c1 [10736/F07] | 10.7% |
| CNS(=O)(=O)c1ccc2c(c1)C(=Cc1cccc(OC)c1)C(=O)N2 [10736/D10] | 16.9% |
| Cc1cccc(C=C2C(=O)Nc3ccc(I)cc32)c1 [10736/B04] | 65.5% |
| O=C1Nc2ccc(S(=O)(=O)Nc3ccc(C(F)(F)F)cc3)cc2C1=Cc1cccc(F)c1 [10736/E07] | 45.9% |
| Cc1ccc(C=C2C(=O)Nc3ccc(I)cc32)cc1 [10736/B05] | 63.9% |
| O=C1Nc2ccc(S(=O)(=O)Nc3ccc(C(F)(F)F)cc3)cc2C1=Cc1ccccc1C(F)(F)F [10736/E03] | 33.0% |
| COc1cccc(C=C2C(=O)Nc3ccc(S(=O)(=O)Nc4ccc(C(F)(F)F)cc4)cc32)c1 [10736/E10] | 37.8% |
| COc1cccc(C=C2C(=O)Nc3ccc(I)cc32)c1 [10736/B10] | 52.5% |
| CCc1ccc(C=C2C(=O)Nc3ccc(S(=O)(=O)N4CCOCC4)cc32)cc1 [10736/F09] | 40.2% |
| O=C1Nc2ccc(S(=O)(=O)N3CCOCC3)cc2C1=Cc1ccccc1F [10736/F08] | −0.2% |
| CCc1ccc(C=C2C(=O)Nc3ccc(Br)c(C)c32)cc1 [10736/C09] | 27.9% |
| O=C1Nc2ccc(I)cc2C1=Cc1ccccc1F [10736/B08] | 59.3% |
| N#Cc1ccccc1C=C1C(=O)Nc2ccc(CCCl)cc21 [10735/G07] | 37.1% |
| Cc1ccc(C=C2C(=O)Nc3c(Br)cc(Br)cc32)cc1 [10736/A05] | 73.6% |
| COc1cccc(C=C2C(=O)Nc3ccc(Br)c(C)c32)c1 [10736/C10] | 18.7% |
| O=C1Nc2ccc(S(=O)(=O)Nc3ccc(C(F)(F)F)cc3)cc2C1=Cc1ccccc1Cl [10736/E11] | 64.4% |
| O=C1Nc2ccc(CCCl)cc2C1=Cc1ccc(Cl)cc1Cl [10735/G10] | 37.8% |

| SMILES | Met Kinase % Inhibition (P.130) |
| --- | --- |
| Cc1cccc(C=C2C(=O)Nc3ccc(S(=O)(=O)Nc4ccc(C(F)(F)F)cc4)cc32)c1 [10736/E04] | 61.8% |
| COc1cccc(C=C2C(=O)Nc3c(Br)cc(Br)cc32)c1 [10736/A10] | 65.0% |
| Cc1c(Br)cc(Br)c2c1C(=Cc1ccc(F)cc1Cl)C(=O)N2 [10719/H09] | 5.8% |
| O=C1Nc2c(Br)cc(Br)cc2C1=Cc1cccc(Cl)c1 [10736/A06] | 69.7% |
| Cc1cccc(C=C2C(=O)Nc3ccc(S(=O)(=O)N4CCOCC4)cc32)c1 [10736/F04] | 45.2% |
| CCc1ccc(C=C2C(=O)Nc3ccc(I)cc32)cc1 [10736/B09] | 55.2% |
| O=C1Nc2ccc(S(=O)(=O)N3CCOCC3)cc2C1=Cc1cccc(Cl)c1 [10736/F06] | 49.0% |
| Cc1ccc(C=C2C(=O)Nc3ccc(Br)c(C)c32)cc1 [10736/C05] | 44.6% |
| Cc1c(Br)cc(Br)c2c1C(=Cc1cccc([N+](=O)[O-])c1)C(=O)N2 [10719/H10] | −5.7% |
| Cc1c(Br)ccc2c1C(=Cc1cccc(F)c1)C(=O)N2 [10736/C07] | 55.6% |
| CNS(=O)(=O)c1ccc2c(c1)C(=Cc1cccc(F)c1)C(=O)N2 [10736/D07] | 15.4% |
| O=C1Nc2ccc(I)cc2C1=Cc1ccc(Cl)cc1 [10736/B02] | 73.6% |
| O=C1Nc2c(Br)cc(Br)cc2C1=Cc1ccc(Cl)cc1 [10736/A02] | 72.5% |
| Cc1cccc(C=C2C(=O)Nc3ccc(Br)c(C)c32)c1 [10736/C04] | 49.0% |
| Cc1c(Br)cc(Br)c2c1C(=Cc1cccc3ccccc13)C(=O)N2 [10735/H09] | 22.4% |
| Cc1c(Br)ccc2c1C(=Cc1ccccc1Cl)C(=O)N2 [10736/C11] | 11.0% |
| Cc1cccc(C=C2C(=O)Nc3c(Br)cc(Br)cc32)c1 [10736/A04] | 75.2% |
| O=C1Nc2ccc(S(=O)(=O)N3CCOCC3)cc2C1=Cc1ccccc1C(F)(F)F [10736/F03] | 23.9% |
| O=C1Nc2ccc(I)cc2C1=Cc1ccccc1C(F)(F)F [10736/B03] | 65.5% |
| Cc1c(Br)cc(Br)c2c1C(=Cc1ccc(N(C)C)cc1)C(=O)N2 [10719/H08] | 20.0% |
| Cc1ccccc1C=C1C(=O)Nc2c(Br)cc(Br)c(C)c21 [10735/H02] | 29.2% |
| Cc1c(Br)ccc2c1C(=Cc1ccccc1F)C(=O)N2 [10736/C08] | 49.2% |
| O=C1Nc2ccc(S(=O)(=O)N3CCOCC3)cc2C1=Cc1ccc(Cl)cc1 [10736/F02] | 69.4% |
| O=C1Nc2c(Br)cc(Br)cc2C1=Cc1ccccc1F [10736/A08] | 58.7% |
| O=C1Nc2ccc(CCCl)cc2C1=Cc1c(F)cccc1F [10735/G08] | 29.9% |
| Cc1c(Br)cc(Br)c2c1C(=Cc1cc(C(F)(F)F)cc(C(F)(F)F)c1)C(=O)N2 [10735/H06] | 57.2% |
| Cc1c(Br)cc(Br)c2c1C(=Cc1c(F)cccc1F)C(=O)N2 [10735/H08] | 59.2% |

| SMILES | Met Kinase % Inhibition (P.130) |
| --- | --- |
| O=C1Nc2ccc(S(=O)(=O)Nc3ccc(C(F)(F)F)cc3)cc2C1=Cc1cccc(Cl)c1 [10736/E06] | 66.6% |
| O=C1Nc2ccc(CCCl)cc2C1=Cc1ccc(-c2ccccc2)cc1 [10735/G11] | 23.0% |
| Cc1c(Br)cc(Br)c2c1C(=Cc1ccc(F)c(F)c1)C(=O)N2 [10735/H03] | 40.8% |
| Cc1c(Br)cc(Br)c2c1C(=Cc1cccc(C(F)(F)F)c1)C(=O)N2 [10735/H05] | 49.8% |
| O=C1Nc2c(Br)cc(Br)cc2C1=Cc1ccccc1Cl [10736/A11] | 46.1% |
| O=C1Nc2ccc(I)cc2C1=Cc1ccccc1Cl [10736/B11] | 47.0% |
| Cc1c(Br)cc(Br)c2c1C(=Cc1ccccc1C#N)C(=O)N2 [10735/H07] | 48.5% |
| CNS(=O)(=O)c1ccc2c(c1)C(=Cc1ccccc1Cl)C(=O)N2 [10736/D11] | 22.6% |
| CNS(=O)(=O)c1ccc2c(c1)C(=Cc1cccc(C)c1)C(=O)N2 [10736/D04] | 8.1% |
| O=C1Nc2ccc(CCCl)cc2C1=Cc1cccc2ccccc12 [10735/G09] | 16.8% |
| CNS(=O)(=O)c1ccc2c(c1)C(=Cc1ccccc1C(F)(F)F)C(=O)N2 [10736/D03] | 14.7% |
| Cc1c(Br)ccc2c1C(=Cc1ccc(Cl)cc1)C(=O)N2 [10736/C02] | 50.1% |
| CNS(=O)(=O)c1ccc2c(c1)C(=Cc1ccc(Cl)cc1)C(=O)N2 [10736/D02] | 44.4% |
| CCc1ccc(C=C2C(=O)Nc3ccc(S(=O)(=O)NC)cc32)cc1 [10736/D09] | 14.1% |
| O=C1Nc2ccc(I)cc2C1=Cc1cccc(F)c1 [10736/B07] | 87.2% |
| Cc1ccc(C=C2C(=O)Nc3ccc(S(=O)(=O)Nc4ccc(C(F)(F)F)cc4)cc32)cc1 [10736/E05] | 57.6% |
| Cc1c(Br)cc(Br)c2c1C(=Cc1ccc(-c3ccccc3)cc1)C(=O)N2 [10735/H11] | 22.8% |
| Cc1ccc(C=C2C(=O)Nc3ccc(S(=O)(=O)N4CCOCC4)cc32)cc1 [10736/F05] | 19.8% |
| CCc1ccc(C=C2C(=O)Nc3c(Br)cc(Br)cc32)cc1 [10736/A09] | 69.7% |
| CNS(=O)(=O)c1ccc2c(c1)C(=Cc1ccccc1F)C(=O)N2 [10736/D08] | 13.0% |
| O=C1Nc2ccc(S(=O)(=O)Nc3ccc(C(F)(F)F)cc3)cc2C1=Cc1ccccc1F [10736/E08] | 52.3% |
| COc1cc(O)ccc1C=C1C(=O)Nc2c(Br)cc(Br)c(C)c21 [10720/H03] | 40.0% |
| O=C1Nc2c(Br)cc(Br)cc2C1=Cc1ccccc1C(F)(F)F [10736/A03] | 42.6% |
| Cc1c(Br)cc(Br)c2c1C(=Cc1cc(F)cc(F)c1)C(=O)N2 [10735/H04] | 42.9% |
| CCc1ccc(C=C2C(=O)Nc3ccc(S(=O)(=O)Nc4ccc(C(F)(F)F)cc4)cc32)cc1 [10736/E09] | 53.8% |
| CNS(=O)(=O)c1ccc2c(c1)C(=Cc1ccc(C)cc1)C(=O)N2 [10736/D05] | 3.9% |
